Results published in paper PMC10545732, “Structure-based drug discovery of a corticotropin-releasing hormone receptor 1 antagonist using an X-ray free-electron laser” (Experimental & Molecular Medicine, 2023).
Like-named read-outs stand apart in the source and are kept apart here.

Legend:
PK studies in rats = assay type: in vivo, SD rats; settings: male, Sprague-Dawley, rat, plasma, SD rats, n = 3
Protocol: CRF1R antagonist PKs were studied in naïve male SD rats following a single i.v. bolus injection or p.o. gavage. The i.v. injections used Antalarmin, BMK-C203, or BMK-C205 at doses of 5 mg/kg and BMK-I-152 at a dose of 1 mg/kg. The antagonist’s doses in the p.o. injection was 10 mg/kg. Three male SD rats weighing between 220 and 260 g were used to evaluate CRF1R antagonist PKs. The vehicle used for all dose groups was […]: TPGS: PEG400 (70%:20%:10%). Blood samples were collected from all treatment groups at 0 h (predose), 0.083, 0.25, 0.5, 1, 2, 4, 6, 8, and 24 h after dosing. Antalarmin, BMK-I-152, BMK-C203, and BMK-C205 concentrations in the plasma samples were determined via LC‒MS/MS (LLOQ was 1 ng/mL for CRF1R antagonists). PK parameter estimates were determined using the serial time-course profiles for plasma concentrations of three male rats per group via noncompartmental analysis using commercially available software (Phoenix WinNonlin, version 8.1, Pharsight Corporation, Mountain View, CA).

ACTH serum levels = experiment: Serum ACTH level after TST (ELISA); assay type: in vivo, mice; settings: 30 mg/kg orally for 3 days, immediately after TST
Protocol: (§1) The mice were anesthetized via intraperitoneal injections of 2,2,2-tribromoethanol (300 mg/kg, Sigma-Aldrich) immediately after the TST and before blood from the heart was sampled. Blood samples were collected in plastic tubes and incubated at room temperature for at least 2 h. The sera were extracted after centrifugation at 13,000×g for 10 min at 4 °C. CORT levels were determined via LC‒MS analysis. Serum (10 µL) was mixed with 20 μL of an internal standard solution (d4-cortisol) to prepare the samples. Subsequently, 100 μL of acetonitrile was added, and the mixture was centrifuged at 16,000×g for 10 min for protein precipitation. The supernatants (60 μL) were transferred into an autosampler vial, and 30 μL of water was added for efficient separation via high-performance liquid chromatography (HPLC). LC‒MS was performed with a triple quadrupole mass spectrometer coupled with HPLC using a C18 reversed-phase column. CORT levels were determined using a calibration curve constructed using CORT-spiked mouse serum. Serum samples (20 μL) were analyzed using a commercially available ELISA kit for ACTH (ab263880, Abcam) to measure ACTH serum levels.

C57BL/6J mice [1] = experiment: Tail suspension test (TST); assay type: in vivo; settings: 30 mg/kg orally for 3 days, test 2 h after third dose, last 4 min of 6 min
Protocol: (§2) C57BL/6J mice (male, 9–10 weeks old) were used for the behavioral tests. All mice were maintained under a 12:12-h light–dark cycle (lights on at 7:00 A.M.) with access to food and water ad libitum. Animal care and handling were performed according to guidelines by the Institutional Animal Care and Use Committee of Yonsei University (Seoul, Korea). Antalarmin, BMK-C203, and BMK-C205 were dissolved in peceol: TPGS: PEG400 (vehicle) (70%:20%:10%, respectively) and administered orally at a dose of 30 mg/kg for 3 days at 24-h intervals. All behavioral tests were conducted 2 h after the third drug was administered during light periods of the circadian cycle. TSTs were performed to verify the effect of CRF1R antagonists on depressive-like behavior. Each mouse was suspended by its tail on a bar 30 cm above the ground for 6 min using adhesive tape. Their movements were recorded by a camera and analyzed using the same parameters via EthoVision XT 8.5 software (Noldus Technologies). Immobility times during the last 4 min of the task were measured. Each mouse was placed in an open field (40 cm × 40 cm × 40 cm chamber) for 1 h to conduct an open field test (OFT) and test locomotion. Their locomotion was recorded and analyzed using EthoVision XT 8.5.

CORT serum levels = experiment: Serum CORT level after TST (LC-MS); assay type: in vivo, mice; settings: 30 mg/kg orally for 3 days, immediately after TST
Protocol: as §1

C57BL/6J mice [2] = experiment: Open field test (OFT); assay type: in vivo; settings: 30 mg/kg orally for 3 days, 1 h open field
Protocol: as §2

CRF1R [3] = molecular target: T1, CRF1R (Homo sapiens, UniProt P34998); experiment: Calcium mobilization assay (hCRF1R Ca2+ antagonism); assay type: cell-based; settings: for IC50 (in words): reason for not selecting
T1 construct: HEK-Gα15 cells (Eurofins Scientific) transfected with CRF1R; host or cells: HEK-Gα15 cells
T1 sequence (P34998 24-415): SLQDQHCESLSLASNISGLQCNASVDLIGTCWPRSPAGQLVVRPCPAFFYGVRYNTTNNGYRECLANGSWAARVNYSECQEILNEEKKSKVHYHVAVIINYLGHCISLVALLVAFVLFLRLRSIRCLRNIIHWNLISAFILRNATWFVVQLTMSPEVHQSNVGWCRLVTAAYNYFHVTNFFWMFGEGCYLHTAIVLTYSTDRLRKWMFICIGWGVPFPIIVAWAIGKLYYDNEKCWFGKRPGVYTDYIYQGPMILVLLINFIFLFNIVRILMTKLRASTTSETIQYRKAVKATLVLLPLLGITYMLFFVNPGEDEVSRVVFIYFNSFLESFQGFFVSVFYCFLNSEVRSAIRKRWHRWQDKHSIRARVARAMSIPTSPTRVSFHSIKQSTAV
Protocol: HEK-Gα15 cells (Eurofins Scientific) transfected with CRF1R were plated in 96-well plates at a density of 50,000 cells/100 μL per well and incubated overnight. The next day, the cells were incubated with a Calcium 6 reagent (Molecular Devices) containing 0.5 mM probenecid (Sigma) at 37 °C for 1 h before adding compounds or dimethyl sulfoxide DMSO (positive and negative control; final concentration 0.1%). After incubation at 37 °C for 1 h, 50 μL urocortin (final concentration 2 nM) (Tocris) was dispensed into the well with FLIPR-tetra (Molecular Devices). […] Intracellular calcium changes were recorded at excitation and emission wavelengths of 470–495 and 515–575 nm, respectively. Relative fluorescence units (RFU) were calculated as the fluorescence signal maximum minus the signal minimum for 30 s after addition. The graphs and IC50 concentrations were calculated using GraphPad Prism 6 software.

CRF1R [4] = molecular target: CRF1R; parameters: method as in PMID 21308801; settings: cited from earlier work
CYP2D6 = CYP2D6 (Homo sapiens, UniProt P10635); experiment: CYP inhibition assay CYP2D6 (dextromethorphan O-demethylase); settings: 10 μM, human liver microsomes, n = 3
CYP1A2 = molecular target: T2, CYP1A2 (Homo sapiens, UniProt P05177); experiment: CYP inhibition assay CYP1A2 (phenacetin O-demethylase); assay type: in vitro ADME
T2 construct: 0.25 mg/mL human liver microsomes; from tissue; host or cells: human liver microsomes
T2 sequence (P05177 1-516): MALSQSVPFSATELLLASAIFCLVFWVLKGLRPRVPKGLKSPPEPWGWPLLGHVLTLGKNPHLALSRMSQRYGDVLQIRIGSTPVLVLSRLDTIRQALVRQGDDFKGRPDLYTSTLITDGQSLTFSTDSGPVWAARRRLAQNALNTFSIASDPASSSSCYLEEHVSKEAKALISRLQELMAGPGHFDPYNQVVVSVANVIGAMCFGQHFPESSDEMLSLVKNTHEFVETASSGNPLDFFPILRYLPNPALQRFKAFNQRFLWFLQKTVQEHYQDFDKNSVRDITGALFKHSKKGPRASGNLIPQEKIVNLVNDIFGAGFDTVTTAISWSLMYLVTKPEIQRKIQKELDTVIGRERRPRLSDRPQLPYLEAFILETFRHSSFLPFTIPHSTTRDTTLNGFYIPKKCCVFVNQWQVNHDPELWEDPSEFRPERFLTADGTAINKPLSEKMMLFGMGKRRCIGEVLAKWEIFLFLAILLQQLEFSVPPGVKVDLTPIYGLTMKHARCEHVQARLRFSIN

[5] = Microsomal stability assay, rat liver microsomes; assay type: in vitro ADME; settings: 1 μM, n = 3
Protocol: The incubation mixtures consisted of 0.5 mg/mL human (Corning, #452117) and rat liver microsomes (Corning, #452701), 0.1 M phosphate buffer (pH 7.4), NADPH regeneration system, and substrates (CRF1R antagonist compounds, 1 µM) in a total volume of 100 μL. […] LC‒MS/MS was performed on a TSQ Vantage (Thermo, USA) coupled with a Nexera XR LC system (Shimadzu, Japan)[32]. The separation was performed on a Kinetex C18 column (2.1 × 100 mm, 2.6 µm, Phenomenex, USA) using a mobile phase of 0.1% formic acid and acetonitrile containing 0.1% formic acid. A gradient program was used for elution at a flow rate of 0.3 mL/min. The data were acquired using multiple-reaction monitoring (MRM) in positive mode. Detection of the ions was performed by monitoring the m/z transition of 494.1 → 336.1 for BMK-I-152, 598.1 → 233.2 for BMK-C203, and 488.1 → 434.1 for BMK-C205.

CYP2C9 = molecular target: T3, CYP2C9 (Homo sapiens, UniProt P11712); experiment: CYP inhibition assay CYP2C9 (diclofenac 4-hydroxylase); assay type: in vitro ADME
T3 construct: 0.25 mg/mL human liver microsomes; from tissue; host or cells: human liver microsomes

[6] = parameters: method as in PMID 21308801; settings: liver microsomal stability assay; cited from earlier work
[7] = Microsomal stability assay, human liver microsomes; assay type: in vitro ADME
Protocol: LC‒MS/MS was performed on a TSQ Vantage (Thermo, USA) coupled with a Nexera XR LC system (Shimadzu, Japan)[32]. The separation was performed on a Kinetex C18 column (2.1 × 100 mm, 2.6 µm, Phenomenex, USA) using a mobile phase of 0.1% formic acid and acetonitrile containing 0.1% formic acid. A gradient program was used for elution at a flow rate of 0.3 mL/min. The data were acquired using multiple-reaction monitoring (MRM) in positive mode.

CYP2C19 = molecular target: T4, CYP2C19 (Homo sapiens, UniProt P33261); experiment: CYP inhibition assay CYP2C19 (S-mephenytoin 4-hydroxylase); assay type: in vitro ADME
T4 construct: 0.25 mg/mL human liver microsomes; from tissue; host or cells: human liver microsomes

CYP3A4 = CYP3A4 (Homo sapiens, UniProt P08684); experiment: CYP inhibition assay CYP3A4 (midazolam 1'-hydroxylase); settings: 10 μM, human liver microsomes, n = 3
[8] = 10 μM, human liver microsomes, n = 3

T3 sequence (P11712 whole entry): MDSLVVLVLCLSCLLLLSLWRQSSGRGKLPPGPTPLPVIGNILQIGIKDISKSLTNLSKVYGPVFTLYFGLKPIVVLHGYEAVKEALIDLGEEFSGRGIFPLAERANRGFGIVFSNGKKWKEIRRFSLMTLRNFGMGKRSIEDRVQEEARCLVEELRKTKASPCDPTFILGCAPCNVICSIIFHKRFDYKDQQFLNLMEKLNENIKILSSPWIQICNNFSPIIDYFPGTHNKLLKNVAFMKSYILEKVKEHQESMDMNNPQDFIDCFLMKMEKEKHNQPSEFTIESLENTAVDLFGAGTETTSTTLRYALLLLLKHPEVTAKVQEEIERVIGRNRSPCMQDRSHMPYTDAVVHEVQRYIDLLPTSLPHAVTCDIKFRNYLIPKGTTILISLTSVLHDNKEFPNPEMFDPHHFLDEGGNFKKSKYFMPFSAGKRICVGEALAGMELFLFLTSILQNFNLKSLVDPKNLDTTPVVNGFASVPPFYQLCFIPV
T4 sequence (P33261 whole entry): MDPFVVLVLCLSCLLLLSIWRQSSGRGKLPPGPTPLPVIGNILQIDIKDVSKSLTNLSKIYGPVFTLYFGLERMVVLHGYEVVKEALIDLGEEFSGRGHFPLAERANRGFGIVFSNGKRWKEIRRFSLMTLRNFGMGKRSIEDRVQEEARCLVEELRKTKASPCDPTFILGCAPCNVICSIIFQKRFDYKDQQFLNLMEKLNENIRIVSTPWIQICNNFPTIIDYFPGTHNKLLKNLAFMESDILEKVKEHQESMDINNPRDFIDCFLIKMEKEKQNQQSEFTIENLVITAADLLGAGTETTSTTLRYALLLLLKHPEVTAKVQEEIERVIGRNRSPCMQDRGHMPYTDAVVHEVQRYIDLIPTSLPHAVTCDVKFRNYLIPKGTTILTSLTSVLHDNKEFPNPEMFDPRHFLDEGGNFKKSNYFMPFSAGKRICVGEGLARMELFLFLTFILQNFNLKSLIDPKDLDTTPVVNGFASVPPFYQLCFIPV
Chain of CYP2D6 (P10635 whole entry): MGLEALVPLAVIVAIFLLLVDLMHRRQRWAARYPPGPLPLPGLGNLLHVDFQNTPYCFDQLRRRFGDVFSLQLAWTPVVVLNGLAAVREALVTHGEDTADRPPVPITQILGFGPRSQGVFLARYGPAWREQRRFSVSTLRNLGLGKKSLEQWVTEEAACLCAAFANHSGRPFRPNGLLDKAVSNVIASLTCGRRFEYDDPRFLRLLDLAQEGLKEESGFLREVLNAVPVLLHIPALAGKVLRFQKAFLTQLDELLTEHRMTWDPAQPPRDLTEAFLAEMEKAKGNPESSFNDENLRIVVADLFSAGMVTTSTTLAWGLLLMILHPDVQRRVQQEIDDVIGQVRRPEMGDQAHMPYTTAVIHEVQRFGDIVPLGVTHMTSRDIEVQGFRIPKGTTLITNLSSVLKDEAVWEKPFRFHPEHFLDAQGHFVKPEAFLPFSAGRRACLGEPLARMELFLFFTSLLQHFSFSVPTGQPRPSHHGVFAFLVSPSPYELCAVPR
Chain of CYP3A4 (P08684 whole entry): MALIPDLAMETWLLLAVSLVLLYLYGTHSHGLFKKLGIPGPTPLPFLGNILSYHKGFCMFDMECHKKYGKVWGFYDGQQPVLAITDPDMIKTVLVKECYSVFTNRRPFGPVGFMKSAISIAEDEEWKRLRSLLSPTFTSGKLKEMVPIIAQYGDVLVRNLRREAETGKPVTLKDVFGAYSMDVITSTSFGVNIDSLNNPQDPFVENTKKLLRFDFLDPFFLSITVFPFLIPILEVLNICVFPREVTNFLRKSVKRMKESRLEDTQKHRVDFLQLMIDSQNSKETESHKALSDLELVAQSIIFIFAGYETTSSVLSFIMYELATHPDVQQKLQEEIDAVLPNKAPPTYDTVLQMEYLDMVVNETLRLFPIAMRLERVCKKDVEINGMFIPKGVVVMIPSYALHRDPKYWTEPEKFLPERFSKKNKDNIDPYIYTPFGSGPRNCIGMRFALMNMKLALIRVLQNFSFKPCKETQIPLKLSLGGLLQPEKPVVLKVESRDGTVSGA

## CCCCN(CC)c1nc(C)nc2c1c(C)c(C)n2-c1c(C)cc(C)cc1C [Antalarmin, reference compound]
PK studies in rats; iv, I.V, 5 mg/kg
  AUC(0-t): 4370 ng·h/mL
  half-life: 185 min
PK studies in rats; po, P.O, 10 mg/kg
  AUC(0-t): 660 ng·h/mL
  Cmax: 146 ng/mL
  Tmax: 4 h
  bioavailability: 7.6%
  half-life: 245 min
ACTH serum levels
  serum ACTH level versus vehicle: no significant difference
C57BL/6J mice [1]
  TST immobility time versus vehicle: no significant difference
CORT serum levels
  serum CORT level versus vehicle: no significant difference
C57BL/6J mice [2]
  OFT locomotion / overall moving distance: did not differ among groups

## CCCCN(CCCC(F)(F)F)c1nc(C)nc2c(-c3c(OC)cc(Br)cc3OC)c(C)nn12 [BMK-C207]
CRF1R [3]
  IC50 (in words): high IC50 values

## COc1cc(Br)cc(OC)c1-c1c(C)nn2c(N(CCCC(F)(F)F)CC3CC3)nc(C)nc12 [BMK-C209]
CRF1R [3]
  IC50 (in words): high IC50 values

## CCCN(CCCC(F)(F)F)c1nc(C)nc2c(-c3c(OC)cc(Br)cc3OC)c(C)nn12 [BMK-C210]
CRF1R [3]
  IC50 (in words): high IC50 values

## COCCN(CCOC)c1nc(C)nc2c(-c3c(OC)cc(Br)cc3OC)c(C)nn12 [BMK-I-152]
PK studies in rats; iv, I.V, 1 mg/kg
  AUC(0-t): 913 ng·h/mL
  half-life: 810 min
PK studies in rats; po, P.O, 10 mg/kg
  AUC(0-t): 3080 ng·h/mL
  Cmax: 267 ng/mL
  Tmax: 6.67 h
  bioavailability: 33.8%
  half-life: 340 min
CRF1R [4]
  Ki: 0.35 nM
CYP2D6
  CYP2D6, percentage of control activity: > 100 ± 1.6 percentage of control activity
CRF1R [3]; HEK-Gα15 cells transfected with CRF1R, urocortin 2 nM, n = 3
  IC50: 26 nM
CRF1R [3]; hCRF1R Ca2+ antagonism assay
  IC50 fold lower than that of Antalarmin: ~12 fold
  IC50 fold lower than that of CP376395: ~ 55 fold
CYP1A2; [8]
  CYP1A2, percentage of control activity: 98.8 ± 1.8 percentage of control activity
[5]
  Liver microsomal stability, Rat (percentage remaining after 30 min): 35.3 ± 5.85%
CYP2C9; [8]
  CYP2C9, percentage of control activity: 89.9 ± 7.0 percentage of control activity
[6]
  half-life: < 30 min
[7]; 1 μM, n = 3
  Liver microsomal stability, Human (percentage remaining after 30 min): 27.7 ± 3.87%
[7]; in almost all species (human and rat liver microsomes), 30 min
  liver microsomal stability (remaining): below 35%
CYP2C19; [8]
  CYP2C19, percentage of control activity: 83.2 ± 5.0 percentage of control activity
CYP3A4
  CYP3A4, percentage of control activity: 99.8 ± 3.0 percentage of control activity

## CC(=O)N1CCN(c2ccc(OCC3COC(Cn4ccnc4)(c4ccc(Cl)cc4Cl)O3)cc2)CC1 (stereo not shown) [Ketoconazole, reference compound]
CYP1A2; reference chemical at 0.1 μM
  CYP1A2, percentage of control activity: 94.3 ± 5.3 percentage of control activity
CYP2C9; reference chemical at 0.1 μM
  CYP2C9, percentage of control activity: 94.0 ± 9.2 percentage of control activity
CYP2C19; reference chemical at 0.1 μM
  CYP2C19, percentage of control activity: > 100 ± 12.9 percentage of control activity
